These results are taken from patent US20070173463A1, “Method and composition for treating otitis media” (priority 2006, published 2007).

For series [1] the following is noted: topical; cited from earlier work.
The conditions of series [2]: topical use in the ear; cited from earlier work.
The conditions of series [3]: prophylactic drops; cited from earlier work.
A further series relates to ear. The following applies: guinea pigs; cited from earlier work.
For series [4], the system named is inner ear hearing function. Nature of the series: Application to the round window membrane with monitoring of compound action potential (CAP). It is filed as in vivo, guinea pigs. The following applies: 0.05 to 1.0% applied directly to the round window membrane, more than 50 animals. An excerpt: The inventor conducted animal studies involving application of alpha agonists, including phenylphrine (and other similar agents) directly in the middle ear space of guinea pigs. In these studies, phenylephrine at a concentration of 0.05 to 1.0% was applied directly to the round window membrane of the animal. […] The monitoring of CAP was not specifically reported in published reports, but rather was monitored on a routine basis as a part of the experimental setup. […] See also Isaacson G et al., Oxymetazoline solutions inhibit middle ear pathogens and are not ototoxic.

Turning to `NC[C@H]1O[C@H](O[C@H]2[C@H](O)[C@@H](O[C@H]3O[C@H](CO)[C@@H](O)[C@H](N)[C@H]3O)[C@H](N)C[C@@H]2N)[C@H](N)C[C@@H]1O` [tobramycin], in series [1], the “effectiveness in treating middle ear infections” value (“effectiveness” below) is recorded as “effective in treating middle ear infections topically”. For the same compound, the “toxicity for the inner ear (ototoxicity)” value in series [2] was “scattered reports of ototoxicity”. As to `CC1COc2c(N3CCN(C)CC3)c(F)cc3c(=O)c(C(=O)O)cn1c23` (stereo not drawn) [ofloxacin], the “toxicity for the inner ear (ototoxicity)” value in series [2] is given as “demonstrated lack of toxicity for the inner ear”. Take `O=C(O)c1cn(C2CC2)c2cc(N3CCNCC3)c(F)cc2c1=O` [ciprofloxacin]: the “prevention of post-operative ear drainage after tube insertion” value in series [3] was “effective at preventing post-operative ear drainage after tube insertion”. As for `Cc1cc(C(C)(C)C)c(O)c(C)c1CC1=NCCN1` [oxymetazoline], the “toxicity to the ear” value in the series with ear is “non-toxic to the ear”. With Gentamycin, the “effectiveness” value in series [1] is “effective in treating middle ear infections topically”. Moreover, in series [2], the “toxicity for the inner ear (ototoxicity)” value is reported as “scattered reports of ototoxicity”.

Consider `CNC[C@H](O)c1cccc(O)c1` [phenylephrine], for which the “compound action potential (CAP), a measure of inner ear hearing function” value in series [4] is “not found to be adversely affected”.

For the compound neomycin, in series [1], the “effectiveness” value was “effective in treating middle ear infections topically”.
